In US20060223888A1, “Valproic acid analogues and pharmaceutical composition thereof” (priority 2002, published 2006):

How the values were obtained:
rat liver = conditions: cited from earlier work
PTZ-induced seizures = experiment: ED50 against PTZ-induced seizures, i.p.; format: in vivo; conditions: Rattus norvegicus, ip, male Sprague-Dawley rats (n = 8)
Description: These compounds were investigated for anticonvulsant activity in mice^13 and rats (see results in Table 4) and found to be equivalent in potency to VPA.

[1] = system: Maximal Electroshock (MES) seizures; experiment: Maximal electroshock (MES) test, rats, oral, time to peak effect; format: in vivo; conditions: 50 mg/kg
Procedure: Anticonvulsant testing was conducted at the antiepileptic screening facility of the National Institute for Neurological Disorders and Stroke in Rockville, Md. Initial tests were done in mice (i.p.) followed by oral and i.p. administration to rats. Neurotoxicity was evaluated with the rotarod test. Maximal electroshock (MES) and subcutaneous methylene tetrazole (SCMET) or pentylene tetrazole (PTZ) were the most common tests performed. Typical procedures are described below. MES Assay. Male CD1/CR mice weighing from 25-35 g are administrated test compounds 15 minutes prior to MES. Mice are challenged by pulsed electrical stimulation (50 mA, 0.4 s duration, pulse width 0.5 ms, 60 pulses/sec) via corneal electrodes to induce seizure. Mice are observed post-stimulation for the onset of tonic seizures, and considered to have a tonic seizure only if there is a prolonged extension (>90° from plane of body) of the hind legs. […] Ten mice are used in each group. A number of VPA analogues and their sodium salts were tested for their efficacy as anticonvulsants and for their toxicity using the MES Assay and rotarod test.

[2] = Pharmacokinetics and tissue distribution (plasma, liver, brain) after i.p. administration; format: in vivo, male Sprague-Dawley rats; conditions: rat; for Affinity for / accumulation in the liver (in words): FIG. 1, Table 5
[3] = system: Subcutaneous Methylene Tetrazole (SCMET) seizures; experiment: Subcutaneous methylene tetrazole (SCMET) test, rats, oral, time to peak effect; format: in vivo; conditions: 75 mg/kg
[4] = system: rotarod test (neurotoxicity); experiment: Rotarod neurotoxicity test (TOX), rats, oral; format: in vivo
Procedure: Anticonvulsant testing was conducted at the antiepileptic screening facility of the National Institute for Neurological Disorders and Stroke in Rockville, Md. Initial tests were done in mice (i.p.) followed by oral and i.p. administration to rats. Neurotoxicity was evaluated with the rotarod test. Maximal electroshock (MES) and subcutaneous methylene tetrazole (SCMET) or pentylene tetrazole (PTZ) were the most common tests performed. Typical procedures are described below.
Rotorod Test. Acute drug induced neurotoxicity is detected in mice using the standard rotorod test. An untreated mouse, when placed on a 6 rpm rotation rod, can maintain its equilibrium for a prolonged period of time.
A number of VPA analogues and their sodium salts were tested for their efficacy as anticonvulsants and for their toxicity using the MES Assay and rotarod test. In particular, the following compounds (as shown in the structures below) were tested: 332059U (sodium salt of VPA), 325071 (known compound, tested for comparison), 325073A (metabolite of VPA), 332060U (4,4-difluoro-2-propylpentanoate, fluorinated analogue of VPA), 341031, and 341032U (conjugated (E,Z)-2,3′-diene VPA analogues).

[5] = children born to mothers treated with VPA; cited from earlier work

## C=CCC(CCC)C(=O)O (stereo not shown) [4-ene VPA, 2-propylpent-4-enoic acid]
Rat liver
  Lipid accumulation in rat liver: induce massive lipid accumulation in rat liver

## C/C=C\C(=C/CC)C(=O)[O-].[Na+] [325073A, Sodium (2E)-2-[(1Z)-prop-1-en-1-yl]pent-2-enoate]
PTZ-induced seizures
  ED50: 168 mg/kg
[1]; 0.25 h
  MES N/F = number of animals protected relative to number tested: 2/4
[1]; 0.5 h
  MES N/F = number of animals protected relative to number tested: 0/4
[1]; 1.0 h
  MES N/F = number of animals protected relative to number tested: 0/4
[1]; 2.0 h
  MES N/F = number of animals protected relative to number tested: 0/4
[2]; FIG. 1
  Distribution to the brain (in words): rapid distribution to the brain
[2]; listed as (E,Z)-2,3′-diene VPA
  Affinity for / accumulation in the liver (in words): significantly reduced affinity for the liver
[2]; listed as (E,Z)-2,3′-diene-VPA
  Affinity for / accumulation in the liver (in words): markedly reduced affinities for liver
[3]; 0.25 h
  SCMET N/F = number of animals protected relative to number tested: 1/4
[3]; 0.5 h
  SCMET N/F = number of animals protected relative to number tested: 0/4
[3]; 1.0 h
  SCMET N/F = number of animals protected relative to number tested: 0/4
[3]; 2.0 h
  SCMET N/F = number of animals protected relative to number tested: 0/4
[3]; 4.0 h
  SCMET N/F = number of animals protected relative to number tested: 0/4

## CCCC(CCC)C(=O)[O-].[Na+] [332059A, Sodium 2-propylpentanoate, reference compound]
PTZ-induced seizures
  ED50: 158 mg/kg
[4]; 300 mg/kg, 0.25 h
  TOX: N/F = number of animals that failed the rotarod test to numbers tested: 0/4
[4]; 300 mg/kg, 0.5 h
  TOX: N/F = number of animals that failed the rotarod test to numbers tested: 0/4
[4]; 300 mg/kg, 1.0 h
  TOX: N/F = number of animals that failed the rotarod test to numbers tested: 0/4
[4]; 300 mg/kg, 2.0 h
  TOX: N/F = number of animals that failed the rotarod test to numbers tested: 0/4
[4]; 300 mg/kg, 4.0 h
  TOX: N/F = number of animals that failed the rotarod test to numbers tested: 0/4
[4]; 400 mg/kg, 0.5 h
  TOX: N/F = number of animals that failed the rotarod test to numbers tested: 0/4
[4]; 400 mg/kg, 1.0 h
  TOX: N/F = number of animals that failed the rotarod test to numbers tested: 0/4
[4]; 400 mg/kg, 2.0 h
  TOX: N/F = number of animals that failed the rotarod test to numbers tested: 0/4
[5]
  Neural tube defects leading to spina bifida, share of children born to treated mothers: 1-2%

## C=C/C=C(\CCC)C(=O)O [(E)-2,4-diene-VPA, 2-propylpent-(E)-2,4-dienoic acid]
Rat liver
  Lipid accumulation in rat liver: induce massive lipid accumulation in rat liver
